*1 amine or outer side, *2 acyl side, *3 side chain or, on linkers, in order; H or OH if unused. Where a SMILES comes first, the peptide text is derived from it. [ ]: non-standard residue; d: D form. The star is where a group is joined. NMeAbu(4-morpholino) = CN[C@@H](CCN1CCOCC1)C(=O)O; X1 = CN([C@@H](CCN1CCCCC1)C(=O)[*:2])[*:1]; NMeW = CN[C@@H](Cc1c[nH]c2ccccc12)C(=O)O; NMeY = CN[C@@H](Cc1ccc(O)cc1)C(=O)O; NMeCha = CN[C@@H](CC1CCCCC1)C(=O)O; NMeLys(Me) = CNCCCC[C@H](NC)C(=O)O; NMeF = CN[C@@H](Cc1ccccc1)C(=O)O; NMeI = CC[C@H](C)[C@H](NC)C(=O)O; NMeT = CN[C@H](C(=O)O)[C@@H](C)O; NMeD = CN[C@@H](CC(=O)O)C(=O)O; dNMeL = CN[C@H](CC(C)C)C(=O)O; NMeK = CN[C@@H](CCCCN)C(=O)O; NMeS = CN[C@@H](CO)C(=O)O; Morpholide = C1CN(*)CCO1; NMeA = CN[C@@H](C)C(=O)O; Piperidide = C1CCN(*)CC1

What is called Papp A→B is how fast a substance crosses the layer from the apical side. High values mean fast passage, low ones slow passage.

Data set [1] in a line: RRCK permeability. The conditions noted are these: MDCK; for Papp A→B: dog.
For data set [2], the system named is RRCK (Ralph Russ canine kidney cell line). Put plainly: RRCK permeability. The conditions noted are these: MDCK.
For data set [3] the following is noted: rat; cited from earlier work.
Data set [4] relates to Caco-2. The conditions noted are these: cited from earlier work.
For data set [5] the following is noted: rat intestinal S-9 fraction and rat brush border membrane vesicles.

`CC(C)C[C@@H]1NC(=O)[C@H](Cc2ccc(O)cc2)N(C)C(=O)[C@H]2CCCN2C(=O)[C@H](CC(C)C)NC(=O)[C@H](Cc2ccccc2)N(C)C(=O)[C@@H](CC(C)C)N(C)C1=O` [Compound 7] (cyclo(L[dNMeL][NMeF]L[dP][NMeY])): the recovery in data set [1] worked out at 59.8%. In addition, the “log Papp(RRCK)” value in data set [2] is recorded as −5.24.

In data set [1], `CC(C)C[C@@H]1NC(=O)[C@H](Cc2ccc(O)cc2)N(C)C(=O)[C@H]2CCCN2C(=O)[C@H](CC(C)C)NC(=O)[C@H](Cc2ccc(O)cc2)N(C)C(=O)[C@@H](CC(C)C)N(C)C1=O` [Compound 6] (cyclo(L[dNMeL][NMeY]L[dP][NMeY])) gave a recovery of 72.6%. Also, the “log Papp(RRCK)” value in data set [2] was −5.88. Molecule `CC(C)C[C@@H]1NC(=O)[C@H](Cc2ccc(O)cc2)N(C)C(=O)[C@H]2CCCN2C(=O)[C@H](CC(C)C)NC(=O)[C@H](CCN2CCCCC2)N(C)C(=O)[C@@H](CC(C)C)N(C)C1=O` [Compound 13] (cyclo(L[dNMeL][X1]L[dP][NMeY])) came in with a recovery in data set [1] of 47.9%. The “log Papp(RRCK)” value in data set [2] is listed as −6.15. In data set [1], `CC(C)C[C@@H]1NC(=O)[C@H](Cc2ccc(O)cc2)N(C)C(=O)[C@H]2CCCN2C(=O)[C@H](CC(C)C)NC(=O)[C@H](CC2CCCCC2)N(C)C(=O)[C@@H](CC(C)C)N(C)C1=O` [Compound 12] (cyclo(L[dNMeL][NMeCha]L[dP][NMeY])) gave a recovery of 12.2%. Also, the “log Papp(RRCK)” value in data set [2] is −6.74.

As to `CC(C)C[C@@H]1NC(=O)[C@H](Cc2ccc(O)cc2)N(C)C(=O)[C@H]2CCCN2C(=O)[C@H](CC(C)C)NC(=O)[C@H](CC(=O)O)N(C)C(=O)[C@@H](CC(C)C)N(C)C1=O` [Compound 9] (cyclo(L[dNMeL][NMeD]L[dP][NMeY])), in data set [1], the recovery came to 74.8% and the Papp A→B was 0.457 ×10⁻⁶ cm/s.

With `CC(C)C[C@@H]1NC(=O)[C@H](Cc2ccc(O)cc2)N(C)C(=O)[C@H]2CCCN2C(=O)[C@H](CC(C)C)NC(=O)[C@H](CC(=O)N2CCOCC2)N(C)C(=O)[C@@H](CC(C)C)N(C)C1=O` [Compound 16] (cyclo(L[dNMeL][NMeD](Morpholide)L[dP][NMeY])), in data set [1], the recovery was determined as 47.9%. The “log Papp(RRCK)” value in data set [2] is −6.20. In data set [1], `CNCCCC[C@H]1C(=O)N[C@@H](CC(C)C)C(=O)N2CCC[C@@H]2C(=O)N(C)[C@@H](Cc2ccc(O)cc2)C(=O)N[C@@H](CC(C)C)C(=O)N(C)[C@H](CC(C)C)C(=O)N1C` [Compound 11] (cyclo(L[dNMeL][NMeLys(Me)]L[dP][NMeY])) had a recovery of 59.7% and a Papp A→B of 0.234 ×10⁻⁶ cm/s. `CC(C)C[C@@H]1NC(=O)[C@H](Cc2ccc(O)cc2)N(C)C(=O)[C@H]2CCCN2C(=O)[C@H](CC(C)C)NC(=O)[C@H](CCN2CCOCC2)N(C)C(=O)[C@@H](CC(C)C)N(C)C1=O` [Compound 15] (cyclo(L[dNMeL][NMeAbu(4-morpholino)]L[dP][NMeY])) showed a recovery in data set [1] of 48.7%. The “log Papp(RRCK)” value in data set [2] is given as −5.92.

Turning to `CC(C)C[C@@H]1NC(=O)[C@H](Cc2ccc(O)cc2)N(C)C(=O)[C@H]2CCCN2C(=O)[C@H](CC(C)C)NC(=O)[C@H](Cc2c[nH]c3ccccc23)N(C)C(=O)[C@@H](CC(C)C)N(C)C1=O` [Compound 8] (cyclo(L[dNMeL][NMeW]L[dP][NMeY])), the recovery in data set [1] worked out at 37.1%. The “log Papp(RRCK)” value in data set [2] was −6.66. Consider `CC(C)C[C@@H]1NC(=O)[C@H](Cc2ccc(O)cc2)N(C)C(=O)[C@H]2CCCN2C(=O)[C@H](CC(C)C)NC(=O)[C@H](CCCCN)N(C)C(=O)[C@@H](CC(C)C)N(C)C1=O` [Compound 10] (cyclo(L[dNMeL][NMeK]L[dP][NMeY])), for which the recovery in data set [1] came out at 56.5%. Besides, in data set [2], the “log Papp(RRCK)” value was −6.56.

As for `CC(C)C[C@@H]1NC(=O)[C@H](Cc2ccc(O)cc2)N(C)C(=O)[C@H]2CCCN2C(=O)[C@H](CC(C)C)NC(=O)[C@H]([C@@H](C)O)N(C)C(=O)[C@@H](CC(C)C)N(C)C1=O` [Compound 3] (cyclo(L[dNMeL][NMeT]L[dP][NMeY])), the “log Papp(RRCK)” value in data set [2] is reported as −5.33. On to “cyclo-[LPro-LPhe-DTrp(NMe)-LLys(NMe)-LThr-LPhe(NMe)] [Kessler peptide]”, for which, in data set [3], the oral bioavailability was 10%. Moreover, the Caco-2 permeability result in data set [4] is given as “good”.

Take `CC(C)C[C@@H]1NC(=O)[C@H](Cc2ccc(O)cc2)N(C)C(=O)[C@H]2CCCN2C(=O)[C@H](CC(C)C)NC(=O)[C@H](CO)N(C)C(=O)[C@@H](CC(C)C)N(C)C1=O` [Compound 2] (cyclo(L[dNMeL][NMeS]L[dP][NMeY])): in data set [1], the recovery was determined as 84.3%. Moreover, in data set [2], the “log Papp(RRCK)” value was −5.81. Besides, the “stability towards oxidative or proteolytic degradation” value in data set [5] was “stable”. On to `CC[C@H](C)[C@H]1C(=O)N[C@@H](CC(C)C)C(=O)N2CCC[C@@H]2C(=O)N(C)[C@@H](Cc2ccc(O)cc2)C(=O)N[C@@H](CC(C)C)C(=O)N(C)[C@H](CC(C)C)C(=O)N1C` [Compound 4] (cyclo(L[dNMeL][NMeI]L[dP][NMeY])), for which the recovery in data set [1] is 39.7%.

`CC(C)C[C@@H]1NC(=O)[C@H](Cc2ccc(O)cc2)N(C)C(=O)[C@H]2CCCN2C(=O)[C@H](CC(C)C)NC(=O)[C@H](CC(=O)N2CCCCC2)N(C)C(=O)[C@@H](CC(C)C)N(C)C1=O` [Compound 14] (cyclo(L[dNMeL][NMeD](Piperidide)L[dP][NMeY])) registered a recovery in data set [1] of 45.6%. Besides, the “log Papp(RRCK)” value in data set [2] is −5.84. In data set [1], `CC(C)C[C@@H]1NC(=O)[C@H](Cc2ccc(O)cc2)N(C)C(=O)[C@H]2CCCN2C(=O)[C@H](CC(C)C)NC(=O)[C@H](C)N(C)C(=O)[C@@H](CC(C)C)N(C)C1=O` [Compound 5] (cyclo(L[dNMeL][NMeA]L[dP][NMeY])) displayed a recovery of 47.1%. Besides, in data set [2], the “log Papp(RRCK)” value is −5.26.
